# Laboratory results from patent publication US11084829B2, “Ubiquitin-specific-processing protease 7 (USP7) modulators and uses thereof” (RAPT THERAPEUTICS, INC., priority 2018, dated 2021).
# Molecular target: USP7 (Homo sapiens, UniProt Q93009)
# Assay: USP7 inhibitory potency (IC50)
# Assay type: biochemical
# Procedure: Activity for compounds described herein is provided in Table 2, wherein potency levels are provided as follows: (Potency: USP7 IC50: A<0.01 μM; B=0.01-0.1 μM; C=>0.1 μM.
# USP7, sequence (Q93009 whole entry): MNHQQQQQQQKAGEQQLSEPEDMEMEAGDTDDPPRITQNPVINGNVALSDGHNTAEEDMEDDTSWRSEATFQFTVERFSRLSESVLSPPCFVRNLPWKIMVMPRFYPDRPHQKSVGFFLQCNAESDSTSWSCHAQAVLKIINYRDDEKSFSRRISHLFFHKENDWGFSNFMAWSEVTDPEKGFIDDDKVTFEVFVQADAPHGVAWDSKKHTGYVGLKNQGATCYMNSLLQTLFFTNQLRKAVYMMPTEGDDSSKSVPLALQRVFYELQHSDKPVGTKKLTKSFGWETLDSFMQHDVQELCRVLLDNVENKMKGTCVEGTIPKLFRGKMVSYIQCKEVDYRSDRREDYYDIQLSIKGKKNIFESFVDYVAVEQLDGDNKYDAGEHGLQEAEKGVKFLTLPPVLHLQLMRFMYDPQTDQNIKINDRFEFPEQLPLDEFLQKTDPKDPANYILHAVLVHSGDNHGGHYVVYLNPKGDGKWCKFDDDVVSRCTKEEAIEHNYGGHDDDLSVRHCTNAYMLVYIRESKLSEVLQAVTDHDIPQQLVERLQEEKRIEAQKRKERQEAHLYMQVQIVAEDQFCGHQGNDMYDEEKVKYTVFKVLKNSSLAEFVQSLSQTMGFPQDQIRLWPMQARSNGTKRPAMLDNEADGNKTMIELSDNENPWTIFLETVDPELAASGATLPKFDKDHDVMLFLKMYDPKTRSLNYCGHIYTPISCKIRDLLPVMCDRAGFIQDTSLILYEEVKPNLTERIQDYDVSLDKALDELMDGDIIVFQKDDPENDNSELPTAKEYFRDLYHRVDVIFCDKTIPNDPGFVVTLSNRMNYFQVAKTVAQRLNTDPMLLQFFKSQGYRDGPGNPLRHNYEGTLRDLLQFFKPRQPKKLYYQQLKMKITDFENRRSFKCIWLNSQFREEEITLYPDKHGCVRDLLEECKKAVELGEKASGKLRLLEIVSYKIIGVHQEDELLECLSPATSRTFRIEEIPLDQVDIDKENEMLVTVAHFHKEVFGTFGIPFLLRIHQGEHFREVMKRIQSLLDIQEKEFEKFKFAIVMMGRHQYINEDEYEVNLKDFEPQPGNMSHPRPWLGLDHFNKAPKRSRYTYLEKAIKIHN
row,IC50,Compound
1,10 to 100 nM,"Cc1cc(Cl)cc(-c2ccnc3cc(CN4C(=O)CCC4C(F)(F)F)sc23)c1CC1CNCCO1 (centres unmarked) [Example 114, 1-((7-(5-chloro-3-methyl-2-(morpholin-2-ylmethyl)phenyl)thieno[3,2-b]pyridin-2-yl)methyl)-5-(trifluoromethyl)pyrrolidin-2-one]"
2,< 10 nM,"Cc1cc(Cl)cc(-c2ccnc3cc(CN4C(=O)C5CC5C4=O)sc23)c1C[C@H]1OCCN[C@H]1C (stereo partly drawn) [Example 106, 3-((7-(5-chloro-3-methyl-2-(((2R,3 S)-3-methylmorpholin-2-yl)methyl)phenyl)thieno[3,2-b]pyridin-2-yl)methyl)-3-azabicyclo[3.1.0]hexane-2,4-dione]"
3,10 to 100 nM,"COC(=O)C1CC1C(=O)NCc1cc2ncnc(-c3cc(Cl)cc(C)c3C[C@H]3OCCN[C@@H]3C)c2s1 (stereo partly drawn) [Example 161, methyl 2-(((4-(5-chloro-3-methyl-2-(((2R,3R)-3-methylmorpholin-2-yl)methyl)phenyl)thieno[3,2-d]pyrimidin-6-yl)methyl)carbamoyl)cyclopropane-1-carboxylate]"
4,< 10 nM,"Cc1cc(Cl)cc(-c2ccnc3cc(CN4C(=O)C5CC5C4=O)sc23)c1C[C@H]1OCCN[C@@H]1C (stereo partly drawn) [Example 104, 3-((7-(5-chloro-3-methyl-2-(((2R,3R)-3-methylmorpholin-2-yl)methyl)phenyl)thieno[3,2-b]pyridin-2-yl)methyl)-3-azabicyclo[3.1.0]hexane-2,4-dione]"
5,> 100 nM,"Cc1cc(Cl)cc(-c2ncnc3cc(CN4C(=O)C5CC5C4=O)sc23)c1C[C@H]1CN(C(=O)C(F)(F)F)CCO1 (stereo partly drawn) [Example 198, 3-((4-(5-chloro-3-methyl-2-(((S)-4-(2,2,2-trifluoroacetyl)morpholin-2-yl)methyl)phenyl)thieno[3,2-d]pyrimidin-6-yl)methyl)-3-azabicyclo[3.1.0]hexane-2,4-dione]"
6,< 10 nM,"Cc1cc(Cl)cc(-c2ncnc3cc(CN4C(=O)CCN(C)C4=O)sc23)c1C[C@@H]1CNCC(C)(C)O1 [Example 217, (R)-3-((4-(5-chloro-2-((6,6-dimethylmorpholin-2-yl)methyl)-3-methylphenyl)thieno[3,2-d]pyrimidin-6-yl)methyl)-1-methyldihydropyrimidine-2,4(1H,3H)-dione]"
7,< 10 nM,"Cc1cc(Cl)cc(-c2ncnc3cc(CN4C(=O)CCN(C)C4=O)sc23)c1CC1CNCC(C)(C)O1 (centres unmarked) [Example 193, 3-((4-(5-chloro-2-((6,6-dimethylmorpholin-2-yl)methyl)-3-methylphenyl)thieno[3,2-d]pyrimidin-6-yl)methyl)-1-methyldihydropyrimidine-2,4(1H,3H)-dione]"
8,< 10 nM,"Cc1cc(Cl)cc(-c2ccnc3cc(CN4C(=O)C5CC5C4=O)sc23)c1C[C@@H]1CN[C@@H](C)CO1 (some centres unmarked) [Example 98, 3-((7-(5-chloro-3-methyl-2-((5-methylmorpholin-2-yl)methyl)phenyl)thieno[3,2-b]pyridin-2-yl)methyl)-3-azabicyclo[3.1.0]hexane-2,4-dione]"
9,< 10 nM,"Cc1cc(Cl)cc(-c2ccnc3cc(CN4C(=O)CCCC4=O)sc23)c1CC1CNCCO1 (centres unmarked) [Example 107, 1-((7-(5-chloro-3-methyl-2-(morpholin-2-ylmethyl)phenyl)thieno[3,2-b]pyridin-2-yl)methyl)piperidine-2,6-dione]"
10,10 to 100 nM,"Cc1cc(Cl)cc(-c2ccnc3cc(Cn4c(=O)ccn(CC(F)(F)F)c4=O)sc23)c1CN1CCNCCC1=O [Example 255, 3-((7-(5-chloro-3-methyl-2-((7-oxo-1,4-diazepan-1-yl)methyl)phenyl)thieno[3,2-b]pyridin-2-yl)methyl)-1-(2,2,2-trifluoroethyl)pyrimidine-2,4(1H,3H)-dione]"
11,< 10 nM,"Cc1cc(Cl)cc(-c2ncnc3cc(CN4C(=O)C5CCCN5C4=O)sc23)c1CC1CNCC(C)(C)O1 (centres unmarked) [Example 191, 2-((4-(5-chloro-2-((6,6-dimethylmorpholin-2-yl)methyl)-3-methylphenyl)thieno[3,2-d]pyrimidin-6-yl)methyl)tetrahydro-1H-pyrrolo[1,2-c]imidazole-1,3(2H)-dione]"
12,< 10 nM,"Cc1cc(Cl)cc(-c2ccnc3cc(CN4C(=O)C5C(C4=O)C5(C)C)sc23)c1CC1CNCCO1 (centres unmarked) [Example 103, 3-((7-(5-chloro-3-methyl-2-(morpholin-2-ylmethyl)phenyl)thieno[3,2-b]pyridin-2-yl)methyl)-6,6-dimethyl-3-azabicyclo[3.1.0]hexane-2,4-dione]"

# Further lines, the compound ahead of its results:
row,Compound,IC50
1,"C[C@H]1CNCCN1Cc1c(F)cccc1-c1ncnc2cc(CN3C(=O)C4CC4C3=O)sc12 (stereo partly drawn) [Example 72, 3-((4-(3-fluoro-2-(((S)-2-methylpiperazin-1-yl)methyl)phenyl)thieno[3,2-d]pyrimidin-6-yl)methyl)-3-azabicyclo[3.1.0]hexane-2,4-dione]",> 100 nM
2,"3-((7-(3,5-dichloro-2-(((2S,6S)-2,6-dimethylpiperazin-1-yl)methyl)phenyl)thieno[3,2-b]pyridin-2-yl)methyl)-1-methyldihydropyrimidine-2,4(1H,3H)-dione [Example 93]",< 10 nM
3,"Cc1cc(Cl)cc(-c2ncnc3cc(CN4C(=O)C5C(C4=O)C5(C)C)sc23)c1CN1CCNC[C@@H]1C (stereo partly drawn) [Example 50, 3-((4-(5-chloro-3-methyl-2-(((S)-2-methylpiperazin-1-yl)methyl)phenyl)thieno[3,2-d]pyrimidin-6-yl)methyl)-6,6-dimethyl-3-azabicyclo[3.1.0]hexane-2,4-dione]",< 10 nM
4,"Cc1cc(Cl)cc(-c2ccnc3cc(CN4C(=O)CCC4=O)sc23)c1CN1[C@@H](C)CN(C(C)C)C[C@@H]1C [Example 30, 1-((7-(5-chloro-2-(((2S,6S)-4-isopropyl-2,6-dimethylpiperazin-1-yl)methyl)-3-methylphenyl)thieno[3,2-b]pyridin-2-yl)methyl)pyrrolidine-2,5-dione]",< 10 nM
5,"Cc1cc(Cl)cc(-c2ccnc3cc(CN4C(=O)C5C(C4=O)C5(C)C)sc23)c1CC1CNCC(C)(C)O1 (centres unmarked) [Example 97, 3-((7-(5-chloro-2-((6,6-dimethylmorpholin-2-yl)methyl)-3-methylphenyl)thieno[3,2-b]pyridin-2-yl)methyl)-6,6-dimethyl-3-azabicyclo[3.1.0]hexane-2,4-dione]",< 10 nM
6,"Cc1cc(Cl)cc(-c2ccnc3cc(CN4C(=O)CCC4=O)sc23)c1CN1CCNC(C)(C)C1 [Example 10, 1-((7-(5-chloro-2-((3,3-dimethylpiperazin-1-yl)methyl)-3-methylphenyl)thieno[3,2-b]pyridin-2-yl)methyl)pyrrolidine-2,5-dione]",< 10 nM
7,"Cc1cc(Cl)cc(-c2ncnc3cc(CN4C(=O)COC4=O)sc23)c1CN1C[C@@H](C)NC[C@@H]1C [Example 76, 3-((4-(5-chloro-2-(((2S,5R)-2,5-dimethylpiperazin-1-yl)methyl)-3-methylphenyl)thieno[3,2-d]pyrimidin-6-yl)methyl)oxazolidine-2,4-dione]",10 to 100 nM
8,"C[C@H]1CNCCN1Cc1c(F)cc(F)cc1-c1ncnc2cc(CN3C(=O)C4CC4C3=O)sc12 (stereo partly drawn) [Example 74, 3-((4-(3,5-difluoro-2-(((S)-2-methylpiperazin-1-yl)methyl)phenyl)thieno[3,2-d]pyrimidin-6-yl)methyl)-3-azabicyclo[3.1.0]hexane-2,4-dione]",> 100 nM
